# Patent US5891882A, “Benzopyranopyrrole and benzopyranopyridine α-1 adenergic compounds” (priority 1997, dated 1999)
# Where a name gives a salt, the structure may show the parent alone.
# Experiments:
# [1] = molecular target: T1, α-1 Adrenoceptors (Rat Aorta) (Rattus norvegicus, UniProt P23944); test: Functional antagonism at α-1 adrenoceptors, rat aorta; format: cell-based
# T1 construct: Rat Aorta; from tissue; host or cells: rat aorta
# T1 sequence (P23944 1-561): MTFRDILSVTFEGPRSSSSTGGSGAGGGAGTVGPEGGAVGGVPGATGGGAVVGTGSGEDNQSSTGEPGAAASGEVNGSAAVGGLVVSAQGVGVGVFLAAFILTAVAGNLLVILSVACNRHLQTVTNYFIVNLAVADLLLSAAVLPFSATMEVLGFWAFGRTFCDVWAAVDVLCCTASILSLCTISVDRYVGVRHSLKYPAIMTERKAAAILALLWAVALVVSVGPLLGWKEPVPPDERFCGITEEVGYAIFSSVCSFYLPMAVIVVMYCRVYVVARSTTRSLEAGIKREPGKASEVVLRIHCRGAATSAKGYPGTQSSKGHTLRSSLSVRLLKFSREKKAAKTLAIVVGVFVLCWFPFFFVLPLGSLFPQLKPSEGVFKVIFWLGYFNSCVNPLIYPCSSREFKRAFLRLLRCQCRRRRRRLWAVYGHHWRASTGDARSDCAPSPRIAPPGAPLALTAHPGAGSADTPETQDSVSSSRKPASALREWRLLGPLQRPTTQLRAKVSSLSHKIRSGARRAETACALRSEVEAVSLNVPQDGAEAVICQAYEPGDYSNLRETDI
# Summary of the method: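 Phenylephrine dose-response curves for contraction were repeated against increasing test-agent concentrations. pA2 was derived by Schild plot [[…] vs log molarity of test agent].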
# [2] = molecular target: T2, α-1A adrenoreceptor (canine prostate smooth muscle) (Canis lupus, UniProt A0A8I3NK63); test: Functional antagonism: inhibition of phenylephrine-induced contraction of canine prostate strips; format: cell-based; settings: Schild plot
# T2 construct: antagonism of phenylephrine-induced contraction (pA2, Schild)
# T2 sequence (A0A8I3NK63 1-466): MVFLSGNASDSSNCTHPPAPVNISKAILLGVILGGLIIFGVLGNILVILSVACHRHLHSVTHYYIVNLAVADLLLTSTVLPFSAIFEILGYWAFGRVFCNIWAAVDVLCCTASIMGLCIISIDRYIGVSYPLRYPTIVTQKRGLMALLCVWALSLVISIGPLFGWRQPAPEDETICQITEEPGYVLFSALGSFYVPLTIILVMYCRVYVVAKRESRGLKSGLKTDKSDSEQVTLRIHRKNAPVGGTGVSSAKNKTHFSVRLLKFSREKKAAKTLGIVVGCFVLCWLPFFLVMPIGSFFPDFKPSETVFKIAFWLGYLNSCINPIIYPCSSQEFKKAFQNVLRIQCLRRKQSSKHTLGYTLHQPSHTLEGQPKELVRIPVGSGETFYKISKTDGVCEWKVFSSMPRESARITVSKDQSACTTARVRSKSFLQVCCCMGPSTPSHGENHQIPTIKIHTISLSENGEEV
# Excerpt: Canine prostate strips were used in vitro as previously described (Hieble, J. P., Boyce, Caine, M., Fed Proc., 45: 2609-2614 (1986)), to determine antagonist potencies phenylephrine-induced contractions.
# Functional assays indicative of pharmacologically defined α-1 adrenoreceptors were used to further characterize compounds. Inhibition of phenylephrine (PE)-induced contraction of canine prostate smooth muscle can be correlated with α-1A adrenoreceptor activation. […] For each of these models, agonist dose response curves were repeated against increasing concentrations of test agent to derive a Schild plot [log ([…]) against log (molarity of test agent)] to determine the pA2.
# Canine prostate strips were used in vitro as previously described (Hieble, J. P., Boyce, A. J. and Caine, M., Fed. Proc., 45: 2609-2614 (1986)), to determine antagonist potencies against phenylephrine-induced contractions.
In Vitro Characterization (pA2) Rat Aorta [1],Compound,In Vitro Characterization (pA2) Dog Prostate [2]
9.15,"COc1ccc2c(n1)sc1c(=O)n(CCCCN3C[C@@H]4COc5cccc(OC)c5[C@@H]4C3)c(=O)[nH]c12 [Example 33, hydrochloride]",–
–,"COc1cccc2c1[C@@H]1CCN(CCCCn3c(=O)[nH]c4c(sc5cccnc54)c3=O)C[C@H]1CO2 (relative stereo) [Example 88, 3-[4-((±)-trans-10-Methoxy-1,3,4,4a,5,10b-hexahydro-2H-[1]-benzopyrano[3,4-c]pyrido-3-yl)butyl]-pyrido[2',3':4,5]thieno[3,2-d]pyrimidine-2,4(1H,3H)-dione hydrochloride]",8.09
